Reference: patent US6777418B2, “Retinoid compounds (I)” (Syntex (U.S.A.) LLC, priority 2000, dated 2004)

Tests used:
RAR α = biological target: T1, RAR α (Homo sapiens, UniProt P10276); assay: Ligand binding assay, retinoid receptors (Apfel et al.), RAR alpha; conditions: first value of the cell, read-out: IC50 nM (alpha/beta/gamma): alpha
T1 sequence (P10276 1-462): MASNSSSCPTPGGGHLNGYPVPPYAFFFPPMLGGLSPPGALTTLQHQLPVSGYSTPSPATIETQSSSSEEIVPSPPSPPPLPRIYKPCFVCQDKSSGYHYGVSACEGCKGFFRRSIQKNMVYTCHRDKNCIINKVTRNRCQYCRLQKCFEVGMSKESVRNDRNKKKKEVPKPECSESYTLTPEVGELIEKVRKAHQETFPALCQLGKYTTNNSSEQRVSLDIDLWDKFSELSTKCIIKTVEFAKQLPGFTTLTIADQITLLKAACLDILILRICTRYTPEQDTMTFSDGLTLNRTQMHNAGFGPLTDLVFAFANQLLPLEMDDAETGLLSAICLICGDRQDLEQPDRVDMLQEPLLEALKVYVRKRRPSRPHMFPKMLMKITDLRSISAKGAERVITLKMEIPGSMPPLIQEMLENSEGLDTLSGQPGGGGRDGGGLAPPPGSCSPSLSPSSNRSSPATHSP
Description: (§1) The retinoic acid receptor agonist selectivity of a compound of the invention may be determined by using ligand binding assays known to the skilled artisan (Apfel et al., Proc. Natl. Acad. Sci., (1992), 89, 7129; Teng et al., J. Med. Chem., (1997), 40, 2445; Bryce et al., U.S. Pat. No. 5,807,900 which are herein incorporated by reference). Treatment with RAR agonists, particularly RAR γ agonists may promote repair of alveolar matrix and septation, which are in important in treating emphysema. Preferably, compounds of the invention are γ selective agonists that bind to the γ receptor with affinities between about 25 nm and about 1000 nm and show a five to ten fold selectivity over binding to the RAR α receptor. It should be noted that RAR agonists that are not γ selective may be effective in treating emphysema. Transactivation, which is the ability of a retinoid to activate gene transcription when gene transcription is initiated by the binding of a ligand to the particular retinoic acid receptor being tested, may be determined by using methods described in the art (Apfel et al., Proc. Natl. Acad. Sci., (1992), 89, 7129; Bernard et al., Biochem. And Biophys. Res. Comm., (1992), 186, 977 which is herein incorporated by reference.
(§2) The RAR α antagonist selectivity of compounds of the invention was determined by the ligand binding assays described in C. Apfel et al. Proc. Nat. Sci. Acad. (USA), 89:7129-7133 (1992).

RAR beta = biological target: T2, RAR beta (Homo sapiens, UniProt P10826); assay: Ligand binding assay, retinoid receptors (Apfel et al.), RAR beta; conditions: second value of the cell, read-out: IC50 nM (alpha/beta/gamma): beta
T2 sequence (P10826 1-455): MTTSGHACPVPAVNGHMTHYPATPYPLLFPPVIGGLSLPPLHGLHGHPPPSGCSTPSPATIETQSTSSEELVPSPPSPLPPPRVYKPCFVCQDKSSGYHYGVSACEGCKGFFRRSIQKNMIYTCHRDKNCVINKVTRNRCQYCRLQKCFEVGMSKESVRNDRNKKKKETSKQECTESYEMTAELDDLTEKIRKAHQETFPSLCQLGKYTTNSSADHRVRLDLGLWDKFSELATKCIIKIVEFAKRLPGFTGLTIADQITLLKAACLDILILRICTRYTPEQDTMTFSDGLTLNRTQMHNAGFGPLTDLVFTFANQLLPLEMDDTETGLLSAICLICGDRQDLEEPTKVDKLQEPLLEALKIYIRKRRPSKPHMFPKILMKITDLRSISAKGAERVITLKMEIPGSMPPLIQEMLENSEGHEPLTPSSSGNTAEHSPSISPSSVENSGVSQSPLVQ
Description: as §1, §2

RAR gamma = biological target: T3, RAR gamma (Homo sapiens, UniProt P13631); assay: Ligand binding assay, retinoid receptors (Apfel et al.), RAR gamma; conditions: third value of the cell, read-out: IC50 nM (alpha/beta/gamma): gamma
T3 sequence (P13631 1-454): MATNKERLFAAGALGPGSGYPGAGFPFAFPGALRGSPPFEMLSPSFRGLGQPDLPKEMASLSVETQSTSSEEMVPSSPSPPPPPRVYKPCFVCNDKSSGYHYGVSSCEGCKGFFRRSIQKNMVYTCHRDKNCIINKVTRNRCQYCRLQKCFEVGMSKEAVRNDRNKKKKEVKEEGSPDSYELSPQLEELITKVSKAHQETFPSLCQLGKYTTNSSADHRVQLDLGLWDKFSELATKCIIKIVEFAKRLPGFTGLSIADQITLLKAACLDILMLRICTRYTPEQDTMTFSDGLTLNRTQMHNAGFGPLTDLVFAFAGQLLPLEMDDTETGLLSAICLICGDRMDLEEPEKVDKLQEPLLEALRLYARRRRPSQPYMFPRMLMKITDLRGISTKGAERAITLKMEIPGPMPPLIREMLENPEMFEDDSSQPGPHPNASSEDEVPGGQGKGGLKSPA
Description: as §1, §2

| IC50 (RAR α) [nM] | IC50 (RAR beta) [nM] | IC50 (RAR gamma) [nM] | melting point [°C] | SMILES |
| --- | --- | --- | --- | --- |
| 3600 | 1600 | 1700 | 184.2 to 187.9 | COCc1cc2c(cc1/C=C/c1ccc(C(=O)O)cc1)C(C)(C)CCC2(C)C [Compound 1] |
| 1000 | 320 | 190 | – | CCCCSCc1cc2c(cc1/C=C/c1ccc(C(=O)O)cc1)C(C)(C)CCC2(C)C [Compound 2, 4-[(E)-2-(3-Butylthiomethyl-5,5,8,8-tetramethyl-5,6,7,8-tetrahydro-naphthalen-2-yl)vinyl]benzoic acid] |
| 200 | 100 | 260 | 66.1 to 68.5 | CCC(C)CSCc1cc2c(cc1/C=C/c1ccc(C(=O)O)cc1)C(C)(C)CCC2(C)C (centres unmarked) [Compound 3] |
| 260 | 140 | 17 | 255.6 to 257.4 | CC1(C)CCC(C)(C)c2cc(Cn3cccc3)c(/C=C/c3ccc(C(=O)O)cc3)cc21 [Compound 7, 4-[(E)-2-(5,5,8,8-tetramethyl-3-pyrrol-1-ylmethyl-5,6,7,8-tetrahydro-naphthalen-2-yl)vinyl]benzoic acid] |
| 810 | 450 | 26 | 169.7 to 171 | CC1(C)CCC(C)(C)c2cc(CSCc3ccco3)c(/C=C/c3ccc(C(=O)O)cc3)cc21 [Compound 8] |
| 1800 | 1400 | 210 | 164.7 to 166 | COCCCc1cc2c(cc1/C=C/c1ccc(C(=O)O)cc1)C(C)(C)CCC2(C)C [Compound 11, 4-{(E)-2-[3-(3-methoxypropyl}-5,8,8-tetramethyl-5,6,7,8-tetrahydro-naphthalen-2-yl]vinyl}benzoic acid] |
| 1000 | 1000 | 1800 | – | CC1(C)CCC(C)(C)c2cc(CO)c(/C=C/c3ccc(C(=O)O)cc3)cc21 [Compound 15] |
| 950 | 620 | 670 | – | Cc1cnn(Cc2cc3c(cc2/C=C/c2ccc(C(=O)O)cc2)C(C)(C)CCC3(C)C)c1 [Compound 20] |
| 190 | 100 | 230 | – | Cn1nnnc1SCc1cc2c(cc1/C=C/c1ccc(C(=O)O)cc1)C(C)(C)CCC2(C)C [Compound 25] |
